Measurements as given in US20260185979A1, “APPARATUSES AND METHODS FOR ANALYZING LIVE CELLS” (AGILENT TECHNOLOGIES, INC., priority 2022, published 2026).
Entries after “also recorded” stand apart in the source; their conditions may differ.

Key:
[1] = test system: NK-92 invasion; conditions: transmigration assays; cited from earlier work
[2] = test system: MCF-7-red target cells; assay: ECM invasion and cytotoxicity assay: NK-92 cells over matrigel layered on MCF-7-red cells (impedance and live cell imaging, xCELLigence RTCA eSight); assay type: cell-based, human; conditions: for killing of target cells by NK-92 (drop in impedance): MMP inhibitor 2 μM and 10 μM in matrigel and media
Procedure: An exemplary protocol is described as follows. Briefly, varying volumes of matrigel (50-110 microliters (μL)/well; 6 milligrams (mg)/millilter (mL)) representing increasing distance for invasion is layered over MCF-7 (available from American Type Culture Collection (ATCC)) human breast adenocarcinoma cells stably expressing nuclear-localized red fluorescent protein (MCF-7). NK-92 cells (available from Creative Bioarray, ATCC) are added over the solidified matrigel layer at E:T of 3:1. eLive Green (available from Agilent Technologies, shown in green) is added at 1 μL/mL. A broad spectrum MMP inhibitor (such as GM6001, available from Selleck Chemicals) is used to evaluate the role of matrix metalloproteinases (MMPs).
The ability of NK-92 cells to invade the matrigel and kill the MCF-7-red target cells was evaluated by concurrent impedance and imaging readouts on an XCELLIGENCE RTCA ESIGHT® imaging and sensing system (available from Agilent Tech., Inc.). Background impedance signal was measured with 50 μL of EMEM media in the wells of E-plate VIEW microplate (available from Agilent Technologies, Cat#0030060101030). MCF-7-red target cells (30,000 in 100 μL) were added to each well. The plate was placed at room temperature for thiry minutes to facilitate an even distribution of cells at the bottom. […] Impedance readings were collected every fifteen minutes, and photos were taken every sixty minutes. Images from four fields of view were acquired in each well in brightfield, red, and green fluorescence channels. […] Percent cytolysis was calculated from normalized cell impedance readings at seventy-two hours using the formula: [(1−(treated/untreated)*100]. […]
The ability of NK-92 cells to invade the matrigel and kill the MCF7-red target cells was evaluated by concurrent impedance and imaging readouts on an XCELLIGENCE RTCA ESIGHT® imaging and sensing system as outlined in FIG. 6A. Background impedance signal was measured with 50 μL of EMEM media in the wells of E-plate VIEW microplate. […]

[3] = test system: A431 cells; assay: EpCAM-CAR-T cytotoxicity assay, A431 cells cultured in DMEM media (no matrigel); assay type: cell-based, human; conditions: Pemigatinib 5 μM and 10 μM, E:T 3.5, DMEM media
Procedure: […] […] Tumor cell growth and CAR-T cytotoxicity were determined from real-time impedance and live cell imaging data collected on the XCELLIGENCE RTCA ESIGHT® imaging and sensing system. Pemigatinib (1 μM, 5 μM and 10 μM), an inhibitor of FGFR isoforms 1-3, sold under the brand name Pemazyre was used to evaluate the role of FGFR signaling. Percent cytolysis was calculated from normalized cell impedance and imaging (red fluorescence) data using the formula [(1−(treated/control)*100].
[…] The background impedance signal was measured with 50 μL of c-DMEM media in the wells of E-plate VIEW microplate (Agilent Technologies, Cat#0030060101030). […] Impedance was read every 15 minutes and images were taken every 60 minutes. Images from four fields of view were acquired for each well in brightfield and red fluorescence channel. […]
(§1) The software generates a real-time plot of impedance data with time (X-axis) and Cell Index (CI, Y-axis). […] Normalized Cell Index (NCI(t)) was calculated by dividing the CI at time t (CI(t)) with CI at normalization time point (CI(tnormalization)). […] Percent cytolysis was calculated from NCI (impedance) using the formula [(1−(CAR-T treated/Pemigatinib treated)*100]. Percent cytolysis was calculated from red object counts/well (imaging) using the formula [(1−(CAR-T treated/Pemigatinib treated)*100].

[4] = test system: A431 cells; assay: A431 cell proliferation, normalized cell index over time; assay type: cell-based, human
Procedure: (§2) Briefly, matrigel (6 mg/ml) was layered (50 μL/ell) over A431-red target tumor cells expressing nuclear-localized mKate2 (red fluorescent protein). After 2 h, epithelial cell adhesion molecule (EpCAM)-CAR-T cells were seeded over the matrigel layer. Tumor cell growth and CAR-T cytotoxicity were determined from real-time impedance and live cell imaging data collected on the XCELLIGENCE RTCA ESIGHT® imaging and sensing system. Pemigatinib (1 μM, 5 μM and 10 μM), an inhibitor of FGFR isoforms 1-3, sold under the brand name Pemazyre was used to evaluate the role of FGFR signaling. Percent cytolysis was calculated from normalized cell impedance and imaging (red fluorescence) data using the formula [(1−(treated/control)*100].
(§3) The ability of EpCAM-CAR-T cells to invade the matrigel and kill A431-red target cells was evaluated using impedance and imaging readouts on an XCELLIGENCE RTCA ESIGHT® imaging and sensing system. The background impedance signal was measured with 50 μL of c-DMEM media in the wells of E-plate VIEW microplate (Agilent Technologies, Cat#0030060101030). Cell suspension of A 431-red cells was prepared in c-DMEM at desired cell numbers to be aliquot at 100 μL/well. […] Impedance was read every 15 minutes and images were taken every 60 minutes. Images from four fields of view were acquired for each well in brightfield and red fluorescence channel. […]

[5] = test system: A431-red target cells; assay: ECM invasion and cytotoxicity assay: EpCAM-CAR-T cells over matrigel layered on A431-red cells (impedance and imaging); assay type: cell-based, human; conditions: for percent cytolysis (CAR-T killing): matrigel
Procedure: as §2
as §3, with “μL/well. After the addition of tumor cells, the E-plate was allowed to rest at room temperature for 30 min to facilitate an even distribution at the bottom.” for “μL/well.”
as §1

CNC(=O)[C@H](Cc1c[nH]c2ccccc12)NC(=O)[C@@H](CC(=O)NO)CC(C)C [GM6001, Ilomostat]
NK-92 invasion in matrigel in the presence of MMP inhibitor [1]: reduced | target cell killing by GFP-NK92 cells (percent cytolysis from normalized impedance and red fluorescence imaging) ([2]; 2 μM and 10 μM): delayed and reduced target cell killing | killing of target cells by NK-92 (drop in impedance) [2]: delayed but not abrogated | killing of target cells by NK-92 (drop in impedance) ([2]; listed as Ilomostat): delayed the killing of target cells

CCN1C(=O)N(c2c(F)c(OC)cc(OC)c2F)Cc2cnc3[nH]c(CN4CCOCC4)cc3c21 [Pemigatinib]
A431 cytolysis by EpCAM-CAR-T cells in the presence of Pemigatinib [3]: accelerated | proliferation of A431 cells (normalized cell index) ([4]; in the presence of matrigel, 1, 5 and 10 μM tested): reduces the proliferation of A431 cells in the presence of matrigel in a concentration-dependent manner; also recorded: reduced the proliferation of A431 cells with increasing concentrations tested | proliferation of A431 cells (normalized cell index) ([4]; native DMEM media, no matrigel): slows the proliferation of A431 cells in native DMEM media in a concentration dependent manner | percent cytolysis (CAR-T killing) ([5]; 5 μM Pemigatinib with EpCAM-CAR-T): ~20% | percent cytolysis (CAR-T killing) ([5]; 10 μM Pemigatinib with EpCAM-CAR-T): −40% | elimination of A431 cells in invasion assays ([5]; E:T=20:1 and 1 μM Pemigatinib): Complete elimination
